In one test the target is T1, EED (1-441)-His protein (Homo sapiens, UniProt O75530).
T1 construct: 30 nM EED (1-441)-His protein
Put plainly: EED-H3K27Me3 peptide competition binding assay by AlphaScreen. Conditions: read-out: (a) IC50, EED Alphascreen binding Qualified. A digest of the protocol: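 Serially diluted compound (12 points, 3-fold) incubated 20 min with 30 nM EED(1-441)-His and 15 nM biotin-H3K27Me3(19-33) peptide in 25 mM HEPES pH 8, 0.02% Tween-20, 0.5% BSA. Ni-chelate acceptor/streptavidin donor beads (10 μg/mL each) added, 1 h rt dark; 615 nm emission normalized to controls, dose-response fit for IC50.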

Test [1] deals with H3K27 methylation in G401 cell. Put plainly: ELISA (H3K27 methylation) assay in G401 cells. The test is classed as cell-based, human. Conditions: Homo sapiens, G-401, read-out: (c) IC50, ELISA Qualified. A digest of the protocol: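 G401 cells treated 48 h with 3-fold dilutions (8 or 12 points, top 20 μM). Acid-extracted histones probed by ELISA for H3K27me3 or H3K27me2 with ECL readout, normalized to total H3. Percent inhibition versus DMSO fitted to dose-response curve for IC50.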
A general note: An ELISA detects its analyte on a solid surface through an enzyme-linked reagent.

Test [2] concerns the target wild type PRC2 (wtPRC2) complex (Homo sapiens, UniProt O75530). Put plainly: EED LC-MS assay (SAH production by PRC2). The class given is biochemical. Conditions: read-out: (b) IC50, EED LC-MS Qualified. Here is the method: Compounds of the present invention were assessed for their ability to inhibit PRC2 activity in a pentameric complex of EZH2, SUZ12, EED, Rbap48 and AEBP in biochemical assays. The ability of compounds of the present invention to inhibit cellular activity of PRC2 was assessed by analysing histone H3 lysine 27 methylation in human cell lines. The ability of compounds of the present invention to inhibit cancers was derived from their ability to modulate activity in human cancer cell lines bearing specific dependence to PRC2 activity to maintain cancerous growth.
Representative compounds of the present invention were serially and separately diluted 3-fold in DMSO to obtain a total of eight or twelve concentrations. Then the test compounds at each concentration (120 nL of each) were transferred by Mosquito into a 384-well Perkin Elmer ProxiPlate 384 plus plates. Solutions (6 μL) of 24 nM the wild type PRC2 (wtPRC2) complex and 2 μM SAM in reaction buffer (20 mM Tris, pH 8.0, 0.1% BSA, 0.01% Triton, 0.5 mM DTT) were added to the wells that were then incubated with the test compound for 20 min. A 6 μL solution of 3 μM of the peptide substrate H3K27Me0 (histone H3[21-44]-biotin) in reaction buffer was added to initiate each reaction. The final components in the reaction solution include 12 nM wtPRC2 complex, 1 μM SAM, and 1.5 μM H3K27me0 peptide with varying concentration of the compounds. A positive control consisted of the enzyme, 1 μM SAM and 1.5 μM substrate in the absence of the test compound, and a negative control consisted of 1 μM SAM and 1.5 μM substrate only. Each reaction was incubated at rt for 120 min, then stopped by addition of 3 μL per of quench solution (2.5% TFA with 320 nM d4-SAH). The reaction mixture was centrifuged (Eppendorf centrifuge 5810, Rotor A-4-62) for 2 min at 2000 rpm and read on an API 4000 triple quadrupole mass spec with Turbulon Spray (Applied Biosystem) coupled with Prominence UFLC (Shimadzu). The levels of SAH production were then normalized based on the values coming from the positive and negative controls to give percent enzyme activities. The data were then fit to a dose response equation using the program Helios to get the IC50 values of the test compound.

Our source for the IC50 values is patent US10689378B2, “Triazolopyridine compounds and uses thereof” (Novartis AG, priority 2016, dated 2020).

SMILES strings stand for the structures.

Sequence of wild type PRC2 (wtPRC2) complex (O75530 whole entry): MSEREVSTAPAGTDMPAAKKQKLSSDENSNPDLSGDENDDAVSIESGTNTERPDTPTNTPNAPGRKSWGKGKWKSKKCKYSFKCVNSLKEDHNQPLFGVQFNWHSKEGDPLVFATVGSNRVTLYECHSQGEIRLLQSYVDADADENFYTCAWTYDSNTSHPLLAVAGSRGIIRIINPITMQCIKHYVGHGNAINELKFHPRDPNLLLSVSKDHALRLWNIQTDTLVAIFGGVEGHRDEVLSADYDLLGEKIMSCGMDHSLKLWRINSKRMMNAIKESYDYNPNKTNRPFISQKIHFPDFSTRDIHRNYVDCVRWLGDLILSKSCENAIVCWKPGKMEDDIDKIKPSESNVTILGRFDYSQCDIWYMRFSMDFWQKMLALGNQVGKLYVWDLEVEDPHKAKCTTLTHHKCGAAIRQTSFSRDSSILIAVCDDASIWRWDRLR
Sequence of wild type PRC2 (wtPRC2) complex (Q15910 whole entry partner): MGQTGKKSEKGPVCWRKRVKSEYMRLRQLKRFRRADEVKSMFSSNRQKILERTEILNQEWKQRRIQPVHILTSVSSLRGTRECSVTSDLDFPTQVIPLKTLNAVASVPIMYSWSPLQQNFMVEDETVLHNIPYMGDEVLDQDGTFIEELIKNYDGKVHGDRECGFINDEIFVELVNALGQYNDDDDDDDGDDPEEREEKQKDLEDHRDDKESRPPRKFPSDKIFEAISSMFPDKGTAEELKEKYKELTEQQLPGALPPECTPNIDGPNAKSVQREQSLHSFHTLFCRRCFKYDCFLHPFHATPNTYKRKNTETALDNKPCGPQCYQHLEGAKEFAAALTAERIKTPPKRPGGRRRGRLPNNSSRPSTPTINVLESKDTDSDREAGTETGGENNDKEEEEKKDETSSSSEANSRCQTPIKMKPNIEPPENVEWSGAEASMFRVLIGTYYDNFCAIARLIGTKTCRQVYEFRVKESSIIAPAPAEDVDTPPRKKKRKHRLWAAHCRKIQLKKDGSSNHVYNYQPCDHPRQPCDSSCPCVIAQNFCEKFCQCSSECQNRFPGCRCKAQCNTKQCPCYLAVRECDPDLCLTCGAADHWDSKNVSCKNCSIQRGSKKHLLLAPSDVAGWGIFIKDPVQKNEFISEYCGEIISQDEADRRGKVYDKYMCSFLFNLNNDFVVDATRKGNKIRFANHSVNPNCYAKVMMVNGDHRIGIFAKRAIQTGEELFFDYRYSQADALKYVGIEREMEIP
Sequence of wild type PRC2 (wtPRC2) complex (Q15022 whole entry partner): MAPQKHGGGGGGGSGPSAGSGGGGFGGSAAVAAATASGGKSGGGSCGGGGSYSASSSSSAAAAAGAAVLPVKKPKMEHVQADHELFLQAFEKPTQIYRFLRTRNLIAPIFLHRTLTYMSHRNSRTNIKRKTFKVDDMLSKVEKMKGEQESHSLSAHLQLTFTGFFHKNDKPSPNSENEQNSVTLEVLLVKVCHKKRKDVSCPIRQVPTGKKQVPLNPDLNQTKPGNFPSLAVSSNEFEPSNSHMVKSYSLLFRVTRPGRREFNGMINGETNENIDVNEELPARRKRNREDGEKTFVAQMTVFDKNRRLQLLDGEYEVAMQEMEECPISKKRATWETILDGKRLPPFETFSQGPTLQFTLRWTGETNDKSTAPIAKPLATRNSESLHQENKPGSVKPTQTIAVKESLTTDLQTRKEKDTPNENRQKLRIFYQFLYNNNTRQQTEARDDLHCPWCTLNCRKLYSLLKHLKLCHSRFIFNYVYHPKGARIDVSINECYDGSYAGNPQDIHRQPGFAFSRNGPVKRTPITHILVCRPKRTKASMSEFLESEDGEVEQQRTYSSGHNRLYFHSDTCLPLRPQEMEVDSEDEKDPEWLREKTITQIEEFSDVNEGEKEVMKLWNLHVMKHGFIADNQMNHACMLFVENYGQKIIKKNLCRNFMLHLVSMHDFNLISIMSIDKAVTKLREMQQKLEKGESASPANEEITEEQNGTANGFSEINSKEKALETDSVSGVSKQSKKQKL
Sequence of wild type PRC2 (wtPRC2) complex (Q09028 whole entry partner): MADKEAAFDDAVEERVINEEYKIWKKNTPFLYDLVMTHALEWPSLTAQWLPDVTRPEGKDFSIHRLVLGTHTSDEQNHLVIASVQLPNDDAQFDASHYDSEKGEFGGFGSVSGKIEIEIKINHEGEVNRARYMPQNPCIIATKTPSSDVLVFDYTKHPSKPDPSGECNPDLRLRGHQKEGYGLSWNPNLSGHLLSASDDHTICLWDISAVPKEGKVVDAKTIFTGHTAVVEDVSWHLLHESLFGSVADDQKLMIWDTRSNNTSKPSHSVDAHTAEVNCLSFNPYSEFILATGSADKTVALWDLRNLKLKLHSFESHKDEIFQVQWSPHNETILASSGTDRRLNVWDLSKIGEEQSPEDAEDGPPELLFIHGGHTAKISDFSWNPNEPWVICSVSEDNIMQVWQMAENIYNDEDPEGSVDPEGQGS
Sequence of wild type PRC2 (wtPRC2) complex (Q6ZN18 whole entry partner): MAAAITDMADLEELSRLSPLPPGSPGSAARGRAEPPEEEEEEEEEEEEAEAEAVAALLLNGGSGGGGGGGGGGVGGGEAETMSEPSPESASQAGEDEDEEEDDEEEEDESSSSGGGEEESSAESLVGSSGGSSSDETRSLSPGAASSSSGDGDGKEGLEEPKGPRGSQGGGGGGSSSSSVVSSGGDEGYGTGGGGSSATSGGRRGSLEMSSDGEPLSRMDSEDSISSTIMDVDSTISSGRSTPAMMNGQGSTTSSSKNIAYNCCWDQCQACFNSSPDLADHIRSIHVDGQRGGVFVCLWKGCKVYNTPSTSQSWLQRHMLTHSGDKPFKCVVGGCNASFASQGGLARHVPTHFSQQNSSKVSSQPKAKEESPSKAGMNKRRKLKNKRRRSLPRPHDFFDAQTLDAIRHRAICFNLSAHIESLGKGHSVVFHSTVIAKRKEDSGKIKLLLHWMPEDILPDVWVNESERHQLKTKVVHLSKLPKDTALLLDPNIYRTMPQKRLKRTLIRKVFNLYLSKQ
T1 sequence (O75530 whole entry): as the sequence (O75530 whole entry) above

As for `COc1ccccc1CNc1ccc(-c2cc(F)c(CN(C)C)c(F)c2)c2nncn12` [Example 43, 8-(4-((dimethylamino)methyl)-3,5-difluorophenyl)-N-(2-methoxybenzyl)-[1,2,4] triazolo[4,3-a]pyridin-5-amine], the figures for the IC50 (on EED (1-441)-His protein; in test [1]; in test [2]) were 9.5 nM, 3.8 nM and 785 nM, respectively.

With `COc1ccccc1CNc1ccc(-c2cc(F)c(CN3CCCCC3)c(F)c2)c2nncn12` [Example 44, 8-(3,5-difluoro-4-(piperidin-1-ylmethyl)phenyl)-N-(2-methoxybenzyl)-[1,2,4] triazolo[4,3-a]pyridin-5-amine], the half-inhibitory concentration (IC50) on EED (1-441)-His protein came out at 74.8 nM; in test [1] it was 112 nM; in test [2] it was 1100 nM.

For the molecule `COc1cccc(F)c1CNc1ccc(-c2ccc(CN(C)C)cc2)c2nncn12` [Example 45, 8-(4-((dimethylamino)methyl)phenyl)-N-(2-fluoro-6-methoxybenzyl)-[1,2,4] triazolo[4,3-a]pyridin-5-amine], the concentration for half-maximal inhibition (IC50) turned out to be 17.7 nM at EED (1-441)-His protein, 7.6 nM in test [1] and 23.3 nM in test [2].

On to `COc1ccccc1CNc1ccc(-c2ccccc2F)c2nncn12` [Example 47, 8-(2-fluorophenyl)-N-(2-methoxybenzyl)-[1,2,4] triazolo[4,3-a]pyridin-5-amine], for which the IC50 on EED (1-441)-His protein came to 98.5 nM; in test [1], 293 nM; in test [2], 1330 nM.

For the molecule `COc1ccccc1CNc1ccc(-c2cnc(OC)c(F)c2)c2nncn12` [Example 50, 8-(5-fluoro-6-methoxypyridin-3-yl)-N-(2-methoxybenzyl)-[1,2,4]triazolo[4,3-a] pyridin-5-amine], the IC50 at EED (1-441)-His protein is 91.5 nM; in test [1], 374 nM; in test [2], 3190 nM.

Turning to `COc1ncc(-c2ccc(NCc3ccccc3OC)n3cnnc23)cn1` [Example 52, N-(2-methoxybenzyl)-8-(2-methoxypyrimidin-5-yl)-[1,2,4]triazolo[4,3-a]pyridin-5-amine], the concentration for half-maximal inhibition (IC50) on EED (1-441)-His protein was determined as 89.4 nM; in test [1] it was 106 nM; in test [2], 735 nM.

In the case of `COc1ccccc1CNc1ccc(-c2ccc(S(=O)(=O)C3CCNCC3)cc2)c2nncn12` [Example 53, N-(2-methoxybenzyl)-8-(4-(piperidin-4-ylsulfonyl)phenyl)-[1,2,4]triazolo[4,3-a] pyridin-5-amine], the results for the IC50 (at EED (1-441)-His protein; in test [1]; in test [2]) were 27.9 nM, 36.5 nM and 144 nM, respectively.

On to `COc1ccccc1CNc1ccc(-c2ccc(CN3CC(F)(F)C3)cc2)c2nncn12` [Example 54, 8-(4-((3,3-difluoroazetidin-1-yl)methyl)phenyl)-N-(2-methoxybenzyl)-[1,2,4] triazolo[4,3-a]pyridin-5-amine], for which the IC50 at EED (1-441)-His protein came to 19 nM; in test [1], 56.6 nM; in test [2] it was 230 nM.

In the case of `CCS(=O)(=O)c1ccc(-c2ccc(NCc3ccccc3OC)n3cnnc23)cc1` [Example 56, 8-(4-(ethylsulfonyl)phenyl)-N-(2-methoxybenzyl)-[1,2,4]triazolo[4,3-a]pyridin-5-amine], the IC50 at EED (1-441)-His protein came to 33 nM; in test [1] it was 88.5 nM; in test [2], 130 nM.

Consider `COc1ccccc1CNc1ccc(-c2ccc(S(=O)(=O)C(C)C)cc2)c2nncn12` [Example 57, 8-(4-(isopropylsulfonyl)phenyl)-N-(2-methoxybenzyl)-[1,2,4]triazolo[4,3-a] pyridin-5-amine], for which the half-inhibitory concentration (IC50) at EED (1-441)-His protein was 15.9 nM; in test [1], 39.5 nM; in test [2], 183 nM.

As to `COc1ccccc1CNc1ccc(-c2ccc(S(C)(=O)=O)nc2)c2nncn12` [Example 61, N-(2-methoxybenzyl)-8-(6-(methylsulfonyl)pyridin-3-yl)-[1,2,4]triazolo[4,3-a] pyridin-5-amine], the values for the IC50 (on EED (1-441)-His protein; in test [1]; in test [2]) were 43.8 nM, 61.9 nM and 538 nM, respectively.

For `COc1ccccc1CNc1ccc(-c2c(C)noc2C)c2nncn12` [Example 62, 8-(3,5-dimethylisoxazol-4-yl)-N-(2-methoxybenzyl)-[1,2,4]triazolo[4,3-a]pyridin-5-amine], the IC50 at EED (1-441)-His protein is 43.6 nM; in test [1] it was 66.7 nM; in test [2] it was 321 nM.

On to `COc1ccccc1CNc1ccc(-c2ccc(C(C)=O)cc2)c2nncn12` [Example 63, 1-(4-(5-((2-methoxybenzyl)amino)-[1,2,4]triazolo[4,3-a]pyridin-8-yl)phenyl) ethanone], for which the 50% inhibitory concentration (IC50) at EED (1-441)-His protein is 76.8 nM; in test [1] it was 275 nM; in test [2] it was 1700 nM.

Turning to `COc1ccccc1CNc1ccc(-c2ccc(C(N)=O)c(Cl)c2)c2nncn12` [Example 64, 2-chloro-4-(5-((2-methoxybenzyl)amino)-[1,2,4]triazolo[4,3-a]pyridin-8-yl) benzamide], the values for the half-inhibitory concentration (IC50) (on EED (1-441)-His protein; in test [1]; in test [2]) were 31.7 nM, 126 nM and 914 nM, respectively.

For the molecule `COc1ccccc1CNc1ccc(-c2ccc(CN3CC(F)C3)cc2)c2nncn12` [Example 66, 8-(4-((3-fluoroazetidin-1-yl)methyl)phenyl)-N-(2-methoxybenzyl)-[1,2,4] triazolo[4,3-a]pyridin-5-amine], the IC50 on EED (1-441)-His protein turned out to be 11.8 nM; in test [1] it was 29.9 nM; in test [2] it was 252 nM.

Turning to `COc1ccccc1CNc1ccc(-c2ccnc(N3CCN(C)CC3)c2)c2nncn12` [Example 67, N-(2-methoxybenzyl)-8-(2-(4-methylpiperazin-1-yl)pyridin-4-yl)-[1,2,4] triazolo[4,3-a]pyridin-5-amine], the values for the IC50 (at EED (1-441)-His protein; in test [1]; in test [2]) were 54.6 nM, 45 nM and 197 nM, respectively.

On to `COc1ccccc1CNc1ccc(-c2ccc(S(=O)(=O)N3CCCC3)cc2)c2nncn12` [Example 68, N-(2-methoxybenzyl)-8-(4-(pyrrolidin-1-ylsulfonyl)phenyl)-[1,2,4]triazolo[4,3-a] pyridin-5-amine], for which the IC50 was 16.7 nM at EED (1-441)-His protein, 49.7 nM in test [1] and 311 nM in test [2].

For the molecule `CCN1CCN(c2ccc(-c3ccc(NCc4ccccc4OC)n4cnnc34)cn2)CC1` [Example 69, 8-(6-(4-ethylpiperazin-1-yl)pyridin-3-yl)-N-(2-methoxybenzyl)-[1,2,4]triazolo[4,3-a] pyridin-5-amine], the IC50 on EED (1-441)-His protein was determined as 28.2 nM; in test [1], 73.7 nM; in test [2], 304 nM.

For the molecule `COc1ccccc1CNc1ccc(-c2ccc(CN(C)C)cc2F)c2nncn12` [Example 70, 8-(4-((dimethylamino)methyl)-2-fluorophenyl)-N-(2-methoxybenzyl)-[1,2,4] triazolo[4,3-a]pyridin-5-amine], the 50% inhibitory concentration (IC50) at EED (1-441)-His protein was 37.6 nM; in test [1] it was 334 nM; in test [2] it was 188 nM.

With `COc1ccccc1CNc1ccc(-c2ccc(C(=O)N(C)C)cc2F)c2nncn12` [Example 71, 3-fluoro-4-(5-((2-methoxybenzyl)amino)-[1,2,4]triazolo[4,3-a]pyridin-8-yl)-N,N-dimethylbenzamide], the results for the half-inhibitory concentration (IC50) (on EED (1-441)-His protein; in test [1]; in test [2]) were 34.9 nM, 43.4 nM and 275 nM, respectively.

`COc1ccccc1CNc1ccc(-c2ccc(C(N)=O)cc2)c2nncn12` [Example 72, 4-(5-((2-methoxybenzyl)amino)-[1,2,4]triazolo[4,3-a]pyridin-8-yl)benzamide]: the values for the IC50 (at EED (1-441)-His protein; in test [1]; in test [2]) were 12.9 nM, 43.3 nM and 1010 nM, respectively.

In the case of `COc1ccccc1CNc1ccc(-c2ccc(S(N)(=O)=O)cc2)c2nncn12` [Example 73, 4-(5-((2-methoxybenzyl)amino)-[1,2,4]triazolo[4,3-a]pyridin-8-yl)benzene sulfonamide], the results for the IC50 (on EED (1-441)-His protein; in test [1]; in test [2]) were 45.2 nM, 397 nM and 236 nM, respectively.

What is called IC50 is the concentration needed to halve the response being measured.
